Experimental data as given in PubChem BioAssay AID1963828 (Molecular Pharmacology Branch, DTP, NCI, 2024).

Test system: 991263-137-R1-J2-PDC complex spheroid viability
Test: Anticancer human tumor 991263-137-R1-J2-PDC patient-derived colon adenocarcinoma cell line growth inhibition [POLQ]
Conditions: for IC50: curve of first compound; for viability, T/C: stronger effect = lower value
Summary of the method: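 Patient-derived tumour cells were co-cultured with HUVEC and mesenchymal stem cells as multicellular spheroids at 37 °C. They were treated with POLQ inhibitors (novobiocin, ART-558, RP6685) alone or combined with other agents. Top concentrations were at or near clinical Cmax (otherwise 10 microM; SN-38 at 1 microM), decreasing in half-log steps.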

[1] = second compound 0.0316 µM, first compound 0.0316 µM
[2] = second compound 0.0316 µM, first compound 0.1 µM
[3] = second compound 0.0316 µM, first compound 0.316 µM
[4] = second compound 0.0316 µM, first compound 1 µM
[5] = second compound 0.0316 µM, first compound 3.16 µM
[6] = second compound 0.0316 µM, first compound 10 µM
[7] = second compound 0.1 µM, first compound 0.0316 µM
[8] = second compound 0.1 µM, first compound 0.1 µM
[9] = second compound 0.1 µM, first compound 0.316 µM
[10] = second compound 0.1 µM, first compound 1 µM
[11] = second compound 0.1 µM, first compound 3.16 µM
[12] = second compound 0.1 µM, first compound 10 µM
[13] = second compound 0.316 µM, first compound 0.0316 µM
[14] = second compound 0.316 µM, first compound 0.1 µM
[15] = second compound 0.316 µM, first compound 0.316 µM
[16] = second compound 0.316 µM, first compound 1 µM
[17] = second compound 0.316 µM, first compound 3.16 µM
[18] = second compound 0.316 µM, first compound 10 µM
[19] = second compound 1 µM, first compound 0.0316 µM
[20] = second compound 1 µM, first compound 0.1 µM
[21] = second compound 1 µM, first compound 0.316 µM
[22] = second compound 1 µM, first compound 1 µM
[23] = second compound 1 µM, first compound 3.16 µM
[24] = second compound 1 µM, first compound 10 µM
[25] = second compound 3.16 µM, first compound 0.0316 µM
[26] = second compound 3.16 µM, first compound 0.1 µM
[27] = second compound 3.16 µM, first compound 0.316 µM
[28] = second compound 3.16 µM, first compound 1 µM
[29] = second compound 3.16 µM, first compound 3.16 µM
[30] = second compound 3.16 µM, first compound 10 µM
[31] = second compound 10 µM, first compound 0.0316 µM
[32] = second compound 10 µM, first compound 0.1 µM
[33] = second compound 10 µM, first compound 0.316 µM
[34] = second compound 10 µM, first compound 1 µM
[35] = second compound 10 µM, first compound 3.16 µM
[36] = second compound 10 µM, first compound 10 µM
[37] = second compound 0.0316 µM, first compound 0.00316 µM
[38] = second compound 0.0316 µM, first compound 0.01 µM
[39] = second compound 0.1 µM, first compound 0.00316 µM
[40] = second compound 0.1 µM, first compound 0.01 µM
[41] = second compound 0.316 µM, first compound 0.00316 µM
[42] = second compound 0.316 µM, first compound 0.01 µM
[43] = second compound 1 µM, first compound 0.00316 µM
[44] = second compound 1 µM, first compound 0.01 µM
[45] = second compound 3.16 µM, first compound 0.00316 µM
[46] = second compound 3.16 µM, first compound 0.01 µM
[47] = second compound 10 µM, first compound 0.00316 µM
[48] = second compound 10 µM, first compound 0.01 µM
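Further: spheroids exposed to compounds for 7 days before readout.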
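Wherever viability, T/C is given: 100% = DMSO vehicle control viability.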

## CCCS(=O)(=O)Nc1ccc(F)c(C(=O)c2c[nH]c3ncc(-c4ccc(Cl)cc4)cc23)c1F + Cc1cccc(N(C)C(=O)C2C(O)CCN2c2nc(C)cc(C(F)(F)F)c2C#N)c1
Second compound 0.0316 µM
  IC50: > 10000 nM
Second compound 0.1 µM
  IC50: > 10000 nM
Second compound 0.316 µM
  IC50: > 10000 nM
Second compound 1 µM
  IC50: > 10000 nM
Second compound 3.16 µM
  IC50: > 10000 nM
Second compound 10 µM
  IC50: > 10000 nM
[1]
  viability, T/C: 112%
[2]
  viability, T/C: 98.6%
[3]
  viability, T/C: 98%
[4]
  viability, T/C: 103%
[5]
  viability, T/C: 106%
[6]
  viability, T/C: 99.9%
[7]
  viability, T/C: 103%
[8]
  viability, T/C: 109%
[9]
  viability, T/C: 105%
[10]
  viability, T/C: 114%
[11]
  viability, T/C: 106%
[12]
  viability, T/C: 104%
[13]
  viability, T/C: 101%
[14]
  viability, T/C: 102%
[15]
  viability, T/C: 85.2%
[16]
  viability, T/C: 97.5%
[17]
  viability, T/C: 101%
[18]
  viability, T/C: 106%
[19]
  viability, T/C: 96.8%
[20]
  viability, T/C: 97.5%
[21]
  viability, T/C: 95.5%
[22]
  viability, T/C: 95.7%
[23]
  viability, T/C: 100%
[24]
  viability, T/C: 92.3%
[25]
  viability, T/C: 99.8%
[26]
  viability, T/C: 96.7%
[27]
  viability, T/C: 93.5%
[28]
  viability, T/C: 99.1%
[29]
  viability, T/C: 109%
[30]
  viability, T/C: 84.5%
[31]
  viability, T/C: 101%
[32]
  viability, T/C: 98.5%
[33]
  viability, T/C: 97.3%
[34]
  viability, T/C: 92.5%
[35]
  viability, T/C: 101%
[36]
  viability, T/C: 89.2%

## CNCc1ccc(-c2[nH]c3cc(F)cc4c3c2CCNC4=O)cc1 + Cc1cccc(N(C)C(=O)C2C(O)CCN2c2nc(C)cc(C(F)(F)F)c2C#N)c1
Second compound 0.0316 µM
  IC50: > 10000 nM
Second compound 0.1 µM
  IC50: > 10000 nM
Second compound 0.316 µM
  IC50: > 10000 nM
Second compound 1 µM
  IC50: > 10000 nM
Second compound 3.16 µM
  IC50: > 10000 nM
Second compound 10 µM
  IC50: > 10000 nM
[1]
  viability, T/C: 107%
[2]
  viability, T/C: 103%
[3]
  viability, T/C: 118%
[4]
  viability, T/C: 93.4%
[5]
  viability, T/C: 86.2%
[6]
  viability, T/C: 106%
[7]
  viability, T/C: 110%
[8]
  viability, T/C: 107%
[9]
  viability, T/C: 101%
[10]
  viability, T/C: 107%
[11]
  viability, T/C: 105%
[12]
  viability, T/C: 99.4%
[13]
  viability, T/C: 108%
[14]
  viability, T/C: 120%
[15]
  viability, T/C: 77.2%
[16]
  viability, T/C: 112%
[17]
  viability, T/C: 110%
[18]
  viability, T/C: 126%
[19]
  viability, T/C: 115%
[20]
  viability, T/C: 102%
[21]
  viability, T/C: 102%
[22]
  viability, T/C: 113%
[23]
  viability, T/C: 127%
[24]
  viability, T/C: 94.3%
[25]
  viability, T/C: 112%
[26]
  viability, T/C: 101%
[27]
  viability, T/C: 107%
[28]
  viability, T/C: 108%
[29]
  viability, T/C: 110%
[30]
  viability, T/C: 119%
[31]
  viability, T/C: 107%
[32]
  viability, T/C: 114%
[33]
  viability, T/C: 107%
[34]
  viability, T/C: 114%
[35]
  viability, T/C: 123%
[36]
  viability, T/C: 94.2%

## COc1cccc(OCCCN)c1-c1cc(Nc2cnc(C#N)cn2)n[nH]1 + Cc1cccc(N(C)C(=O)C2C(O)CCN2c2nc(C)cc(C(F)(F)F)c2C#N)c1
Second compound 0.0316 µM
  IC50: 677 nM
Second compound 0.1 µM
  IC50: 730 nM
Second compound 0.316 µM
  IC50: 879 nM
Second compound 1 µM
  IC50: 994 nM
Second compound 3.16 µM
  IC50: 833 nM
Second compound 10 µM
  IC50: 624 nM
[37]
  viability, T/C: 113%
[38]
  viability, T/C: 104%
[1]
  viability, T/C: 90.1%
[2]
  viability, T/C: 85.2%
[3]
  viability, T/C: 61.2%
[4]
  viability, T/C: 42.8%
[39]
  viability, T/C: 111%
[40]
  viability, T/C: 95.8%
[7]
  viability, T/C: 104%
[8]
  viability, T/C: 88.2%
[9]
  viability, T/C: 62.2%
[10]
  viability, T/C: 45.4%
[41]
  viability, T/C: 105%
[42]
  viability, T/C: 99.6%
[13]
  viability, T/C: 91.5%
[14]
  viability, T/C: 94%
[15]
  viability, T/C: 71.4%
[16]
  viability, T/C: 47%
[43]
  viability, T/C: 96.2%
[44]
  viability, T/C: 101%
[19]
  viability, T/C: 96.7%
[20]
  viability, T/C: 83%
[21]
  viability, T/C: 76.7%
[22]
  viability, T/C: 49.1%
[45]
  viability, T/C: 110%
[46]
  viability, T/C: 108%
[25]
  viability, T/C: 89.3%
[26]
  viability, T/C: 94.8%
[27]
  viability, T/C: 79.9%
[28]
  viability, T/C: 43.4%
[47]
  viability, T/C: 93.7%
[48]
  viability, T/C: 96.4%
[31]
  viability, T/C: 91.6%
[32]
  viability, T/C: 76.1%
[33]
  viability, T/C: 55%
[34]
  viability, T/C: 46.5%

## Cn1ncnc1[C@H]1c2n[nH]c(=O)c3cc(F)cc(c23)N[C@@H]1c1ccc(F)cc1 + Cc1cccc(N(C)C(=O)C2C(O)CCN2c2nc(C)cc(C(F)(F)F)c2C#N)c1
Second compound 0.0316 µM
  IC50: > 100 nM
Second compound 0.1 µM
  IC50: > 100 nM
Second compound 0.316 µM
  IC50: > 100 nM
Second compound 1 µM
  IC50: > 100 nM
Second compound 3.16 µM
  IC50: > 100 nM
Second compound 10 µM
  IC50: > 100 nM
Second compound 0.0316 µM, first compound 0.000316 µM
  viability, T/C: 84.3%
Second compound 0.0316 µM, first compound 0.001 µM
  viability, T/C: 112%
[37]
  viability, T/C: 123%
[38]
  viability, T/C: 93.3%
[1]
  viability, T/C: 124%
[2]
  viability, T/C: 112%
Second compound 0.1 µM, first compound 0.000316 µM
  viability, T/C: 105%
Second compound 0.1 µM, first compound 0.001 µM
  viability, T/C: 130%
[39]
  viability, T/C: 98.4%
[40]
  viability, T/C: 83.8%
[7]
  viability, T/C: 91.8%
[8]
  viability, T/C: 86.9%
Second compound 0.316 µM, first compound 0.000316 µM
  viability, T/C: 97.9%
Second compound 0.316 µM, first compound 0.001 µM
  viability, T/C: 128%
[41]
  viability, T/C: 101%
[42]
  viability, T/C: 92.7%
[13]
  viability, T/C: 110%
[14]
  viability, T/C: 99.4%
Second compound 1 µM, first compound 0.000316 µM
  viability, T/C: 92.1%
Second compound 1 µM, first compound 0.001 µM
  viability, T/C: 110%
[43]
  viability, T/C: 101%
[44]
  viability, T/C: 104%
[19]
  viability, T/C: 99.7%
[20]
  viability, T/C: 115%
Second compound 3.16 µM, first compound 0.000316 µM
  viability, T/C: 103%
Second compound 3.16 µM, first compound 0.001 µM
  viability, T/C: 113%
[45]
  viability, T/C: 106%
[46]
  viability, T/C: 78.5%
[25]
  viability, T/C: 91.7%
[26]
  viability, T/C: 106%
Second compound 10 µM, first compound 0.000316 µM
  viability, T/C: 105%
Second compound 10 µM, first compound 0.001 µM
  viability, T/C: 114%
[47]
  viability, T/C: 92.9%
[48]
  viability, T/C: 74.8%
[31]
  viability, T/C: 106%
[32]
  viability, T/C: 92.5%
